Results: US9636308B2, “High drug load buprenorphine microspheres and method of producing same” (Oakwood Laboratories LLC, priority 2013, dated 2017)

Assay: Solubility of buprenorphine in solvent systems by visual observation
Excerpt: DCM was used as the main solvent and BzOH as the co-solvent.

## CO[C@@]12CC[C@@]3(C[C@@H]1[C@](C)(O)C(C)(C)C)[C@H]1Cc4ccc(O)c5c4[C@@]3(CCN1CC1CC1)[C@H]2O5.Cl [Buprenorphine (salt form), Buprenorphine hydrochloride]
DCM:BzOH 2:1 by weight versus DCM alone
  Increase of solubility by addition of BzOH to DCM: ~46 fold
Solvent DCM with benzyl alcohol co-solvent (33% by weight; 2:1 DCM:BzOH)
  Solubility: 0.083 g/g
Solvent DCM, no co-solvent
  Solubility: 0.0018 g/g
